Measured values as given in the supplement of paper PMC10307832.

Columns and labels:
Assay in all cases: relative viability (nuclei count vs DMSO), 5 days (fraction); higher = more cells survive
201T = tested on: 201T
Method in brief: (§1)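 Dosing by pin tool came one day after lung cancer cell lines were seeded in 1536-well plates, using either one drug or a fixed anchor-drug dose plus five library-drug doses (not always all listed) in √10 steps. After 5 days, nuclei were counted on 4× images. Relative viability is treated-well nuclei count divided by vehicle-well nuclei count, and values are medians of duplicate plates.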

CAL-12T = tested on: CAL-12T
Method in brief: as §1

ChaGo-K-1 = tested on: ChaGo-K-1
Method in brief: as §1

EMC-BAC-2 = tested on: EMC-BAC-2
Method in brief: as §1

H3255 = tested on: H3255
Method in brief: as §1

HOP-62 = tested on: HOP-62
Method in brief: as §1

LXF-289 = tested on: LXF-289
Method in brief: as §1

NCI-H1437 = tested on: NCI-H1437
Method in brief: as §1

NCI-H1651 = tested on: NCI-H1651
Method in brief: as §1

NCI-H1734 = tested on: NCI-H1734
Method in brief: as §1

NCI-H1755 = tested on: NCI-H1755
Method in brief: as §1

NCI-H1975 = tested on: NCI-H1975
Method in brief: as §1

NCI-H2023 = tested on: NCI-H2023
Method in brief: as §1

NCI-H2085 = tested on: NCI-H2085
Method in brief: as §1

NCI-H2342 = tested on: NCI-H2342
Method in brief: as §1

NCI-H2347 = tested on: NCI-H2347
Method in brief: as §1

NCI-H23 = tested on: NCI-H23
Method in brief: as §1

NCI-H2405 = tested on: NCI-H2405
Method in brief: as §1

NCI-H441 = tested on: NCI-H441
Method in brief: as §1

NCI-H460 = tested on: NCI-H460
Method in brief: as §1

NCI-H838 = tested on: NCI-H838
Method in brief: as §1

SW 900 = tested on: SW 900
Method in brief: as §1

UMC-11 = tested on: UMC-11
Method in brief: as §1

C=C1C(=O)O[C@@H](CCCCCCCC)[C@@H]1C(=O)O [C-75] + Cc1nc(Nc2ncc(C(=O)Nc3c(C)cccc3Cl)s2)cc(N2CCN(CCO)CC2)n1 [Dasatinib] (partner 0.075 µM)
relative viability (201T; first compound 0.08 µM): 0.612 | relative viability (201T; first compound 0.253 µM): 0.707 | relative viability (201T; first compound 0.8 µM): 0.568 | relative viability (201T; first compound 2.53 µM): 0.511 | relative viability (201T; first compound 8 µM): 0.56 | relative viability (CAL-12T; first compound 0.08 µM): 0.391 | relative viability (CAL-12T; first compound 0.253 µM): 0.393 | relative viability (CAL-12T; first compound 0.8 µM): 0.432 | relative viability (CAL-12T; first compound 2.53 µM): 0.317 | relative viability (CAL-12T; first compound 8 µM): 0.303 | relative viability (ChaGo-K-1; first compound 0.08 µM): 0.675 | relative viability (ChaGo-K-1; first compound 0.253 µM): 0.463 | relative viability (ChaGo-K-1; first compound 0.8 µM): 0.567 | relative viability (ChaGo-K-1; first compound 2.53 µM): 0.393 | relative viability (ChaGo-K-1; first compound 8 µM): 0.593 | relative viability (EMC-BAC-2; first compound 0.08 µM): 0.37 | relative viability (EMC-BAC-2; first compound 0.253 µM): 0.313 | relative viability (EMC-BAC-2; first compound 0.8 µM): 0.283 | relative viability (EMC-BAC-2; first compound 2.53 µM): 0.261 | relative viability (EMC-BAC-2; first compound 8 µM): 0.276 | relative viability (H3255; first compound 0.08 µM): 0.382 | relative viability (H3255; first compound 0.253 µM): 0.371 | relative viability (H3255; first compound 0.8 µM): 0.337 | relative viability (H3255; first compound 2.53 µM): 0.327 | relative viability (H3255; first compound 8 µM): 0.437 | relative viability (HOP-62; first compound 0.08 µM): 0.642 | relative viability (HOP-62; first compound 0.253 µM): 0.499 | relative viability (HOP-62; first compound 0.8 µM): 0.6 | relative viability (HOP-62; first compound 2.53 µM): 0.603 | relative viability (HOP-62; first compound 8 µM): 0.666 | relative viability (LXF-289; first compound 0.08 µM): 0.22 | relative viability (LXF-289; first compound 0.253 µM): 0.137 | relative viability (LXF-289; first compound 0.8 µM): 0.26 | relative viability (LXF-289; first compound 2.53 µM): 0.163 | relative viability (LXF-289; first compound 8 µM): 0.22 | relative viability (NCI-H1437; first compound 0.08 µM): 0.4 | relative viability (NCI-H1437; first compound 0.253 µM): 0.381 | relative viability (NCI-H1437; first compound 0.8 µM): 0.367 | relative viability (NCI-H1437; first compound 2.53 µM): 0.298 | relative viability (NCI-H1437; first compound 8 µM): 0.458 | relative viability (NCI-H1651; first compound 0.08 µM): 0.484 | relative viability (NCI-H1651; first compound 0.253 µM): 0.339 | relative viability (NCI-H1651; first compound 0.8 µM): 0.364 | relative viability (NCI-H1651; first compound 2.53 µM): 0.362 | relative viability (NCI-H1651; first compound 8 µM): 0.413 | relative viability (NCI-H1734; first compound 0.08 µM): 0.525 | relative viability (NCI-H1734; first compound 0.253 µM): 0.415 | relative viability (NCI-H1734; first compound 0.8 µM): 0.465 | relative viability (NCI-H1734; first compound 2.53 µM): 0.351 | relative viability (NCI-H1734; first compound 8 µM): 0.337 | relative viability (NCI-H1755; first compound 0.08 µM): 0.42 | relative viability (NCI-H1755; first compound 0.253 µM): 0.33 | relative viability (NCI-H1755; first compound 0.8 µM): 0.404 | relative viability (NCI-H1755; first compound 2.53 µM): 0.259 | relative viability (NCI-H1755; first compound 8 µM): 0.43 | relative viability (NCI-H1975; first compound 0.08 µM): 0.364 | relative viability (NCI-H1975; first compound 0.253 µM): 0.432 | relative viability (NCI-H1975; first compound 0.8 µM): 0.318 | relative viability (NCI-H1975; first compound 2.53 µM): 0.324 | relative viability (NCI-H1975; first compound 8 µM): 0.404 | relative viability (NCI-H2023; first compound 0.08 µM): 0.639 | relative viability (NCI-H2023; first compound 0.253 µM): 0.471 | relative viability (NCI-H2023; first compound 0.8 µM): 0.458 | relative viability (NCI-H2023; first compound 2.53 µM): 0.425 | relative viability (NCI-H2023; first compound 8 µM): 0.472 | relative viability (NCI-H2085; first compound 0.08 µM): 0.264 | relative viability (NCI-H2085; first compound 0.253 µM): 0.309 | relative viability (NCI-H2085; first compound 0.8 µM): 0.284 | relative viability (NCI-H2085; first compound 2.53 µM): 0.266 | relative viability (NCI-H2085; first compound 8 µM): 0.259 | relative viability (NCI-H2342; first compound 0.08 µM): 0.3 | relative viability (NCI-H2342; first compound 0.253 µM): 0.314 | relative viability (NCI-H2342; first compound 0.8 µM): 0.301 | relative viability (NCI-H2342; first compound 2.53 µM): 0.327 | relative viability (NCI-H2342; first compound 8 µM): 0.316 | relative viability (NCI-H2347; first compound 0.08 µM): 0.367 | relative viability (NCI-H2347; first compound 0.253 µM): 0.448 | relative viability (NCI-H2347; first compound 0.8 µM): 0.25 | relative viability (NCI-H2347; first compound 8 µM): 0.32 | relative viability (NCI-H23; first compound 0.08 µM): 0.81 | relative viability (NCI-H23; first compound 0.253 µM): 0.756 | relative viability (NCI-H23; first compound 0.8 µM): 0.718 | relative viability (NCI-H23; first compound 2.53 µM): 0.443 | relative viability (NCI-H23; first compound 8 µM): 0.586 | relative viability (NCI-H2405; first compound 0.08 µM): 0.196 | relative viability (NCI-H2405; first compound 0.253 µM): 0.191 | relative viability (NCI-H2405; first compound 0.8 µM): 0.188 | relative viability (NCI-H2405; first compound 2.53 µM): 0.216 | relative viability (NCI-H2405; first compound 8 µM): 0.22 | relative viability (NCI-H441; first compound 0.08 µM): 0.545 | relative viability (NCI-H441; first compound 0.253 µM): 0.916 | relative viability (NCI-H441; first compound 0.8 µM): 0.723 | relative viability (NCI-H441; first compound 2.53 µM): 0.463 | relative viability (NCI-H441; first compound 8 µM): 0.594 | relative viability (NCI-H460; first compound 0.08 µM): 0.592 | relative viability (NCI-H460; first compound 0.253 µM): 0.364 | relative viability (NCI-H460; first compound 0.8 µM): 0.415 | relative viability (NCI-H460; first compound 2.53 µM): 0.258 | relative viability (NCI-H460; first compound 8 µM): 0.383 | relative viability (NCI-H838; first compound 0.08 µM): 0.242 | relative viability (NCI-H838; first compound 0.253 µM): 0.239 | relative viability (NCI-H838; first compound 0.8 µM): 0.274 | relative viability (NCI-H838; first compound 2.53 µM): 0.26 | relative viability (NCI-H838; first compound 8 µM): 0.268 | relative viability (SW 900; first compound 0.08 µM): 0.531 | relative viability (SW 900; first compound 0.253 µM): 0.796 | relative viability (SW 900; first compound 0.8 µM): 0.829 | relative viability (SW 900; first compound 2.53 µM): 0.548 | relative viability (SW 900; first compound 8 µM): 0.449 | relative viability (UMC-11; first compound 0.08 µM): 0.43 | relative viability (UMC-11; first compound 0.253 µM): 0.547 | relative viability (UMC-11; first compound 0.8 µM): 0.389 | relative viability (UMC-11; first compound 2.53 µM): 0.433 | relative viability (UMC-11; first compound 8 µM): 0.376
